# Tests used:
# Format in all cases: in vivo
# [1] = test system: Avena fatua (AVEFA); test: Pre-emergence herbicidal action against AVEFA; conditions: visual scoring after about 3 weeks vs untreated controls
# How it was run: (§1)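 Pre-emergence soil-surface spray, WP/EC formulation, 0.5% additive, 600 l/ha water, rates of 320 g/ha or lower. Greenhouse, ~3 wk. Visual score, % of untreated control (100% = plants dead, 0% = like control).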
# [2] = test system: Setaria viridis (SETVI); test: Pre-emergence herbicidal action against SETVI
# How it was run: as §1
# [3] = test system: Alopecurus myosuroides (ALOMY); test: Post-emergence herbicidal action against ALOMY; conditions: visual rating about 3 weeks after treatment vs untreated controls (100% = plants have died, 0% = like control plants)
# How it was run: (§2)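 Rates were 320 g/ha or below, applied as aqueous WP/EC spray with 0.5% additive (600 l/ha) onto one-leaf-stage plants. About 3 weeks later in the greenhouse, damage was scored visually against untreated plants on a 0–100% scale, where 100% means plants died.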
# [4] = test system: Setaria viridis (SETVI); test: Post-emergence herbicidal action against SETVI
# How it was run: as §2
# [5] = test system: Polygonum convolvulus (POLCO); test: Pre-emergence herbicidal action against POLCO
# How it was run: as §1
# [6] = test system: Pharbitis purpurea (PHBPU); test: Post-emergence herbicidal action against PHBPU
# How it was run: as §2
# [7] = test system: Amaranthus retroflexus (AMARE); test: Pre-emergence herbicidal action against AMARE; conditions: visual scoring after about 3 weeks vs untreated controls
# How it was run: as §1
# [8] = test system: Lolium rigidum (LOLRI); test: Post-emergence herbicidal action against LOLRI
# How it was run: as §2
# [9] = test system: Polygonum convolvulus (POLCO); test: Post-emergence herbicidal action against POLCO
# How it was run: as §2
# [10] = test system: Abutilon theophrasti (ABUTH); test: Pre-emergence herbicidal action against ABUTH; conditions: Dosage column 320 g/ha (title prints 3200 g/ha); scored visually after about 3 weeks; 100% = plants have died
# How it was run: as §1
SMILES,Pre-emergence action against AVEFA in % ([1]; 320 g/ha) [%],Pre-emergence action against SETVI in % ([2]; dosage 80 g/ha) [%],Pre-emergence action against SETVI in % ([2]; dosage 320 g/ha) [%],Post-emergence action against ALOMY in % ([3]; 80 g/ha) [%],Post-emergence action against ALOMY in % ([3]; 320 g/ha) [%],Post-emergence action against SETVI in % ([4]; dosage 80 g/ha) [%],Post-emergence action against SETVI in % ([4]; dosage 320 g/ha) [%],Pre-emergence action against POLCO in % ([5]; dosage 80 g/ha) [%],Pre-emergence action against POLCO in % ([5]; dosage 320 g/ha) [%],Post-emergence action against PHBPU in % ([6]; dosage 320 g/ha) [%],Pre-emergence action against AMARE in % ([7]; 80 g/ha) [%],Pre-emergence action against AMARE in % ([7]; 320 g/ha) [%],Post-emergence action against LOLRI in % ([8]; dosage 320 g/ha) [%],Post-emergence action against POLCO in % ([9]; dosage 80 g/ha) [%],Post-emergence action against POLCO in % ([9]; dosage 320 g/ha) [%],Pre-emergence action against ABUTH [10] [%],Post-emergence action against PHBPU in % ([6]; dosage 80 g/ha) [%],Pre-emergence action against AVEFA in % ([1]; 80 g/ha) [%],Post-emergence action against LOLRI in % ([8]; dosage 80 g/ha) [%]
"COC(=O)[C@@H](C)Oc1nn(-c2ncccc2F)c(-c2ccc(F)nc2)c1Br [Example I-05, Methyl (2R)-2-{[4-bromo-1-(3-fluoropyridin-2-yl)-5-(6-fluoropyridin-3-yl)-1H-pyrazol-3-yl]oxy}propanoate]",90,100,100,90,100,80,90,90,90,90,90,100,90,90,90,80,,,
COC(=O)COc1nn(-c2ncccc2F)c(-c2ccc(F)nc2)c1Br [Example I-07],90,,100,90,100,90,90,90,100,80,90,90,90,80,80,90,80,,
O=C(O)COc1nn(-c2ncccc2F)c(-c2ccc(F)nc2)c1Br [Example I-08],90,90,100,100,100,80,90,80,100,80,100,100,90,90,90,80,80,80,
C[C@@H](Oc1nn(-c2ncccc2F)c(-c2ccc(F)nc2)c1Br)C(=O)O [Example I-10],100,100,100,100,100,80,80,100,100,,100,100,90,80,80,80,,,90
COCCOC(=O)COc1nn(-c2ccccn2)c(-c2ccc(F)nc2)c1Br [Example I-96],90,100,100,90,90,90,90,90,90,90,90,100,90,80,80,80,90,,90
CCOC(=O)COc1nn(-c2nc(F)ccc2F)c(-c2cncc(F)c2)c1C1CC1 [Example I-149],90,100,100,80,90,80,80,80,90,80,90,100,90,,80,80,80,80,80

# — patent US20240041042A1, “1-(PYRIDYL)-5-AZINYLPYRAZOLE DERIVATIVES, AND THEIR USE FOR CONTROL OF UNDESIRED PLANT GROWTH” (Bayer Aktiengesellschaft, priority 2020, published 2024)
